# Assays:
# 5-Lipoxygenase = target: T1, 5-Lipoxygenase (Homo sapiens, UniProt P09917); test: cell-based
# T1 sequence (P09917 1-674): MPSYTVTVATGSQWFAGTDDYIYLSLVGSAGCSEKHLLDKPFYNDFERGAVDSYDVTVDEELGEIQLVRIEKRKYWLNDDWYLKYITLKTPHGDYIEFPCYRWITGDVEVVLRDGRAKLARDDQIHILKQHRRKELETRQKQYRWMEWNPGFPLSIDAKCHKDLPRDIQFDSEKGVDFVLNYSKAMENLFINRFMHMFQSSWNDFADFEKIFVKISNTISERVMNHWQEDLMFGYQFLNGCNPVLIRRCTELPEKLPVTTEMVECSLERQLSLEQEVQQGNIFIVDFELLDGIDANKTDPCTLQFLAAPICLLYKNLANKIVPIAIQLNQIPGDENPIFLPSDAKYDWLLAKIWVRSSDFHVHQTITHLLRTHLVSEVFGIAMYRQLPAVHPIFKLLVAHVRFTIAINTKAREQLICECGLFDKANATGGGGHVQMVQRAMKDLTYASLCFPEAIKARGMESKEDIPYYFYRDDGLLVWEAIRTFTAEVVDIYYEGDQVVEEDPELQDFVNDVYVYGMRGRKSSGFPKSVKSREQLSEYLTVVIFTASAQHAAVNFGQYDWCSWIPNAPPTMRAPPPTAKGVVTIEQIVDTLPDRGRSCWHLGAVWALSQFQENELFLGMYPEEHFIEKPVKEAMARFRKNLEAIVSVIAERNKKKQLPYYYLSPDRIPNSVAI
# From the text: Die Hemmung der Freisetzung von 5-HETE und Leukotrien B4 aus den Leukozyten stellt ein Maß für den lipoxygenasehemmenden Effekt der erfindungsgemäßen Verbindungen dar.
# Der Test mit den Humanleukozyten wurde nach Borgeat und Samuelsson (J. Biol. Chem. 254, 2643, 1979 und Proc. Natl. Acad. Sci. USA, 76, 2148, 1979) durchgeführt.
# Die im vorliegenden Beispiel verwendeten Human PMN-Leukozyten (w95 %) wurden aus heparinisiertem Vollblut durch eine Dextran-Sedimentation und anschließende Dichtegradiententrennung (Ficoll-Paque) gewonnen (vgl. A. Boyum, Scand. J. Immunol., 5, Suppl 5, 9, 1976).
# 2 x 10^7 Zellen/ml wurden in Ca2+-haltigem Dulbecco-Phosphat-Puffer suspendiert und in Anwesenheit bzw. Abwesenheit von Lipoxygenasehemmer mit dem Calcium-Ionophor A 23187 stimuliert.
# Nach 15 Minuten wurden die Lipoxygenaseprodukte aus dem angesäuerten Inkubationsmedium extrahiert und mittels HPLC getrennt. Die Hochdruckflüssigkeitschromatographie wurde auf Lichrosorb RP-18(5 µm)-Säulen durchgeführt. Das Laufmittel war Methanol/Wasser/Eisessig 69/ 31/0.01. Die Flußrate betrug 1 ml/min. Leukotrien B4 wurde bei 280 nm, die HETE-Derivate bei 232 nm mittels der UV-Absorption bestimmt.
# [1] = tested on: durch Arachidonsäure induzierten Thromboembolie; test: Protection against arachidonic acid induced thromboembolism; assay type: in vivo; conditions: 100 mg/kg p.o., Kaninchen, 1,5 mg/kg Na-arachidonat
# Experimental: In diesem Modell wirken Substanzen, die mit der Prostaglandin- und Thromboxanbiosynthese interferieren. Kaninchen werden 1,5 mg/kg Na-arachidonat in eine marginale Ohrvene injiziert. Die Tiere sterben innerhalb von Minuten, vermutlich aufgrund vasospastischer Cyclooxygenase- und Lipoxygenaseprodukte sowie embolisierender Plättchenthromben. Vorbehandlung mit den erfindungsgemäßen Verbindungen schützt die Tiere, so daß diese überleben. Literatur: Silver, M.J. et al., Science 183, 1085, 1974 Seuter, F., Busse, W.D., Agents and Actions, Suppl. 4, 175, 1979.
# Prostacyclin (PGI2) = test: Prostacyclin stimulation in aortic rings ex vivo; conditions: 30 mg/kg p.o., Ratten
# Experimental: Aortenringe von mit Prüfsubstanzen vorbehandelten Ratten werden 10 Minuten bei 37°C in Trispuffer (pH 7,8) inkubiert. Das sich bildende Prostacyclin wird nach Umwandlung zu dem stabilen 6-Keto-PGF radioimmunologisch bestimmt. Literatur: Mc Intyre, D.E., Salzman, E.W., Thrombos. Haemostas. 46, 19, 1981. Seuter, F. et al., 6th International Symposium on Atherosclerosis, Abstr. 270, Berlin 1982.
smiles,measurement,setting,value
CC(C(=O)O)c1ccc2oc(-c3ccc(Cl)cc3)nc2c1 (stereo not shown) [Benoxaprofen],IC50,5-Lipoxygenase,33.1 to 166 µM
O=C1CCCC2=C1Sc1ccccc1N2 [Herstellungs-beispiel 16],Überlebensrate %,[1],"66,6%"
CSCCOC(=O)C1=C(C)Nc2ccccc2S1 [Herstellungsbeispiel 7],Fähigkeit von Aortenringen Prostacyclin zu synthetisieren,Prostacyclin (PGI2),erhöht
"CC(Cc1ccc(O)c(O)c1)C(C)Cc1ccc(O)c(O)c1 (stereo not shown) [NDGA, Nordihydroguaretsäure]",inhibition at 0.5 µg/mL,"5-Lipoxygenase; 0.25 h, read-out: Hemmung",~50%
